Experimental data taken from PMC10823733, “Promising antibacterial efficacy of arenicin peptides against the emerging opportunistic pathogen Mycobacterium abscessus” (Journal of Biomedical Science, 2024).
Read-outs that look alike come from different tables or passages of the source. Positions of bridges follow the written chain, without caps; N, C: chain ends. Non-standard residues stand in square brackets, D forms with d. Residues, ends and D or L forms follow the SMILES beside them. Abu = CC[C@H](N)C(=O)O

Assays:
human erythrocytes = type: cell-based
Protocol: The hemolytic activity of each peptide was determined as previously described. Briefly, human erythrocytes (red blood cells, hRBC; Divbioscience, Ulvenhout, Netherlands) were washed 2-times with sterile phosphate buffered saline (PBS; Thermo Fisher Scientific) and pelleted by centrifugation at 800 rpm for 5 min; then resuspended in DMEM^FBS to a final erythrocyte concentration of 8% (v/v). Then, 100 µL of this hRBC solution was distributed to each well of sterile 96-well flat-bottom microplates (Greiner Bio-One) containing serial two-fold dilutions of arenicin, arenicin-Abu derivative or controls in DMEM^FBS to a final volume of 200 µL. After 1 h incubation at 37 °C, microplates were centrifuged at 800 rpm for 5 min. Then, 100 µL of supernatant were carefully transferred to a new 96-well microplate, and OD405 corresponding to the release of hemoglobin was measured using a microplate reader (Biotek, Synergy Mx, Colmar, France). DMEM^FBS and Triton-X100 at 0.1% (v/v) were used as negative (i.e., 0% hemolysis) and positive (i.e., 100% hemolysis) controls, respectively. The concentration of peptide leading to 10% and 50% of hemolysis compared to the positive control was defined as the HC10 and HC50, respectively, and was determined by fitting the dose–response curves in Kaleidagraph 4.2 software (Synergy Software). All experiments were done in triplicate.

[1] = type: cell-based, human
Protocol: (§1) The toxicity of each peptide was evaluated on human cell lines using a resazurin assay as previously described. Human lung epithelial cells BEAS-2B (ATCC CRL-9609), liver cells HepG2 (ATCC HB-8065), and kidney cells A498 (ATCC HTB-44) were used. All cells were cultured in Dulbecco's modified essential medium (DMEM) supplemented with 10% heat-inactivated fetal calf serum (FBS, Thermo Fisher Scientific), and 1% L-glutamine (Thermo Fisher Scientific) (DMEM^FBS) at 37 °C in a 5% CO2 incubator to subconfluent concentrations. Cells were detached with trypsin–EDTA solution (Thermo Fisher Scientific), and around 1 × 10^4 cells/well were seeded in 96-well flat-bottom microplates (Greiner Bio-One) with a lid, and cultured for additional 48–72 h at 37 °C and 5% CO2 until cell confluence. The medium was removed, and 100 µL of serial two-fold dilutions of the peptides in DMEM^FBS were added to each well. Following a 48 h-incubation period at 37 °C and 5% CO2, cell viability was evaluated using the resazurin assay as described above. Fluorescence of the resazurin metabolite resorufin (λex/λem = 530/590 nm) was measured after 2 h incubation at 37 °C and 5% CO2 in the dark, with a microplate reader (Biotek, Synergy Mx, Colmar, France). The cytotoxic concentration of peptide leading to 50% cell death as compared to the control was defined as the CC50, and was determined by fitting the RFU% sigmoidal dose–response curves in Kaleidagraph 4.2 software (Synergy Software). All experiments were conducted in triplicate.

[2] = Cytotoxic assay on human cells (resazurin); type: cell-based; details: A498, 48 h exposure
Protocol: as §1

[3] = type: cell-based, human; remark: listed apart in the source
Protocol: as §1

[4] = system: M. abscessus CIP 104536 T S variant; test: microbe, parasite or virus in culture; type: cell-based, Mycobacterium abscessus
Protocol: (§2) Mycobacterium abscessus S and R strains (CIP 104536^ T) were grown in Middlebrook 7H9 medium supplemented with 0.05% (v/v) Tween 80, 0.2% (v/v) glycerol and 10% (v/v) oleic acid–albumin–dextrose–catalase (OADC enrichment; BD Difco) (7H9-S^OADC) at 37 °C under stirring (200 rpm). We used Ar-1 (RWC^3VYAYVRVRGVLVRYRRC^20W) and Ar-1-Abu, in which the cysteines in position 3 and 20 were replaced by alpha-amino-n-butyric acid (Abu) residues. We also tested Ar-2 (RWC^3VYAYVRIRGVLVRYRRC^20W), Ar-2-Abu (cysteines 3 and 20 replaced), Ar-3 (GFC^3WYVC^7VYRNGVRVC^16YRRC^20N), Ar-3-Abu (all four cysteines were replaced by Abu), Ar-3(3–20) (cysteines 7 and 16 replaced), and Ar-3(7–16) (cysteines 3 and 20 replaced). All arenicins and arenicin-Abu derivatives were obtained from GenScript (Piscataway, NJ, USA) with purity higher than 95%.
(§3) For determining the antimicrobial activity of the different peptides, the Middlebrook 7H9 broth microdilution method was used in sterile 96-well flat-bottom Greiner Bio-One polypropylene microplates with lid (Thermo Fisher Scientific) using the resazurin microtiter assay (REMA). Briefly, Mycobacterium abscessus was cultured up to mid log-phase (OD600 ~ 1.5–2) and diluted to a cell density of 5 × 10^6 cells/mL in 7H9-S^OADC. Then, 100 µL of this above inoculum was distributed to each well containing serial two-fold dilutions of arenicin, arenicin derivative or controls to a final volume of 200 µL. Growth controls containing no peptide (i.e., bacteria only = B), inhibition controls containing 50 µg/mL kanamycin (Euromedex, Souffelweyersheim, France) and sterility controls (i.e., medium only) without bacteria were included. After 5 days incubation at 37° C in a humidity chamber to prevent evaporation, 20 µL of a 0.025% (w/v) resazurin solution was added to each well. The microplate was re-incubated until appearance of a color change from blue to pink in the control well (i.e., bacteria without antibiotics). Fluorescence of the metabolite resorufin (λex/λem = 530/590 nm) was measured using a Tecan Spark 10 M ™ multimode microplate reader (Tecan Group Ltd, France). Relative fluorescence units (RFU) were defined as: RFU% = (test well FU/mean FU of control B wells) × 100. MIC50 and MIC90 values were determined by fitting the RFU% sigmoidal dose–response curves in Kaleidagraph 4.2 software (Synergy Software, Reading, PA). The concentration of peptide leading to 50% and 90% inhibition of M. abscessus growth was defined as the MIC50 and MIC90, respectively. All experiments were performed independently at least three times.

[5] = system: M. abscessus CIP 104536 T R variant; test: microbe, parasite or virus in culture; type: cell-based, Mycobacterium abscessus
Protocol: as §2, §3

[6] = S variant, 50% inhibition of in vitro growth, REMA, 5 days
[7] = S variant, 90% inhibition of in vitro growth, REMA, 5 days
[8] = Mycobacteroides abscessus, CIP104536, 120 h

Compound | hemolytic activity on human erythrocytes (in words, considering HC10) (human erythrocytes) | HC10 (human erythrocytes; red cells of human, 1 h) [µM] | HC50 (human erythrocytes; red cells of human, 1 h) [µM] | CC50 [1] [µM] | CC50 [2] [µM] | CC50 [3] [µM] | MIC50 [4, 6] [µM] | MIC90 [4, 7] [µM] | MIC50 [5, 8] [µM] | MIC90 [5, 8] [µM] | MIC50 [4, 8] [µM] | MIC90 [4, 8] [µM] | MIC50 ([5]; R variant, 50% inhibition of in vitro growth, REMA, 5 days) [µM] | MIC90 ([5]; R variant, 90% inhibition of in vitro growth, REMA, 5 days) [µM] | HC50 (human erythrocytes) [µM]
CC[C@@H]1NC(=O)[C@H](C(C)C)NC(=O)[C@H](CCCNC(=N)N)NC(=O)[C@H](C(C)C)NC(=O)CNC(=O)[C@H](CC(N)=O)NC(=O)[C@H](CCCNC(=N)N)NC(=O)[C@H](Cc2ccc(O)cc2)NC(=O)[C@H](C(C)C)NC(=O)[C@H](CC)NC(=O)[C@H](C(C)C)NC(=O)[C@H](Cc2ccc(O)cc2)NC(=O)[C@H](Cc2c[nH]c3ccccc23)NC(=O)[C@@H](NC(=O)[C@H](Cc2ccccc2)NC(=O)CN)CSSC[C@@H](C(=O)N[C@@H](CC(N)=O)C(=O)O)NC(=O)[C@H](CCCNC(=N)N)NC(=O)[C@H](CCCNC(=N)N)NC(=O)[C@H](Cc2ccc(O)cc2)NC1=O [Ar-3(3–20)] (H-GFCWYV[Abu]VYRNGVRV[Abu]YRRCN-OH; disulfide 3-20) | totally inactive | > 100 | > 100 | > 100 | 42 ± 1.3 | > 100 | 48.3 | > 100 |  |  |  |  |  |  | 
CC(C)[C@@H]1NC(=O)CNC(=O)[C@H](CC(N)=O)NC(=O)[C@H](CCCNC(=N)N)NC(=O)[C@H](Cc2ccc(O)cc2)NC(=O)[C@H](C(C)C)NC(=O)[C@@H]2CSSC[C@H](NC(=O)[C@H](C(C)C)NC(=O)[C@H](CCCNC(=N)N)NC1=O)C(=O)N[C@@H](Cc1ccc(O)cc1)C(=O)N[C@@H](CCCNC(=N)N)C(=O)N[C@@H](CCCNC(=N)N)C(=O)N[C@H](C(=O)N[C@@H](CC(N)=O)C(=O)O)CSSC[C@H](NC(=O)[C@H](Cc1ccccc1)NC(=O)CN)C(=O)N[C@@H](Cc1c[nH]c3ccccc13)C(=O)N[C@@H](Cc1ccc(O)cc1)C(=O)N[C@@H](C(C)C)C(=O)N2 [Ar-3] (H-GFCWYVCVYRNGVRVCYRRCN-OH; disulfide 3-20, 7-16) |  | 30.3 ± 2.5 | > 100 | > 100 | 46.7 ± 1.7 | > 100 | 5.3 | 12.2 |  |  |  |  |  |  | 
NCC[C@H](O)C(=O)N[C@@H]1C[C@H](N)[C@@H](O[C@H]2O[C@H](CN)[C@@H](O)[C@H](O)[C@H]2O)[C@H](O)[C@H]1O[C@H]1O[C@H](CO)[C@@H](O)[C@H](N)[C@H]1O [AMK, amikacin, reference compound] |  |  |  |  |  |  |  |  | 7.4 ± 0.26 | 10.1 | 3.9 ± 0.19 | 5.8 |  |  | 
CC[C@H](NC(=O)[C@H](CCCNC(=N)N)NC(=O)[C@H](CCCNC(=N)N)NC(=O)[C@H](Cc1ccc(O)cc1)NC(=O)[C@H](CCCNC(=N)N)NC(=O)[C@@H](NC(=O)[C@H](CC(C)C)NC(=O)[C@@H](NC(=O)CNC(=O)[C@H](CCCNC(=N)N)NC(=O)[C@@H](NC(=O)[C@H](CCCNC(=N)N)NC(=O)[C@@H](NC(=O)[C@H](Cc1ccc(O)cc1)NC(=O)[C@H](C)NC(=O)[C@H](Cc1ccc(O)cc1)NC(=O)[C@@H](NC(=O)[C@H](CC)NC(=O)[C@H](Cc1c[nH]c2ccccc12)NC(=O)[C@@H](N)CCCNC(=N)N)C(C)C)C(C)C)[C@@H](C)CC)C(C)C)C(C)C)C(=O)N[C@@H](Cc1c[nH]c2ccccc12)C(=O)O [Ar-2-Abu] (H-RW[Abu]VYAYVRIRGVLVRYRR[Abu]W-OH) |  | 15.4 ± 1.0 | > 100 | > 100 | 92.1 ± 2.3 | > 100 |  |  |  |  |  |  |  |  | 
CC[C@H](NC(=O)[C@H](CCCNC(=N)N)NC(=O)[C@H](CCCNC(=N)N)NC(=O)[C@H](Cc1ccc(O)cc1)NC(=O)[C@@H]1CSSC[C@H](NC(=O)[C@@H](NC(=O)[C@H](Cc2ccc(O)cc2)NC(=O)[C@H](Cc2c[nH]c3ccccc23)NC(=O)[C@H](CC)NC(=O)[C@H](Cc2ccccc2)NC(=O)CN)C(C)C)C(=O)N[C@@H](C(C)C)C(=O)N[C@@H](Cc2ccc(O)cc2)C(=O)N[C@@H](CCCNC(=N)N)C(=O)N[C@@H](CC(N)=O)C(=O)NCC(=O)N[C@@H](C(C)C)C(=O)N[C@@H](CCCNC(=N)N)C(=O)N[C@@H](C(C)C)C(=O)N1)C(=O)N[C@@H](CC(N)=O)C(=O)O [Ar-3(7–16)] (H-GF[Abu]WYVCVYRNGVRVCYRR[Abu]N-OH; disulfide 7-16) |  | 41.1 ± 4.3 | > 100 | > 100 | 37.7 ± 1.2 | > 100 |  |  |  |  |  |  |  |  | 
CC[C@H](NC(=O)[C@H](CCCNC(=N)N)NC(=O)[C@H](CCCNC(=N)N)NC(=O)[C@H](Cc1ccc(O)cc1)NC(=O)[C@H](CC)NC(=O)[C@@H](NC(=O)[C@H](CCCNC(=N)N)NC(=O)[C@@H](NC(=O)CNC(=O)[C@H](CC(N)=O)NC(=O)[C@H](CCCNC(=N)N)NC(=O)[C@H](Cc1ccc(O)cc1)NC(=O)[C@@H](NC(=O)[C@H](CC)NC(=O)[C@@H](NC(=O)[C@H](Cc1ccc(O)cc1)NC(=O)[C@H](Cc1c[nH]c2ccccc12)NC(=O)[C@H](CC)NC(=O)[C@H](Cc1ccccc1)NC(=O)CN)C(C)C)C(C)C)C(C)C)C(C)C)C(=O)N[C@@H](CC(N)=O)C(=O)O [Ar-3-Abu] (H-GF[Abu]WYV[Abu]VYRNGVRV[Abu]YRR[Abu]N-OH) |  | 39.3 ± 3.2 | > 100 | > 100 | 36.6 ± 0.9 | > 100 | > 100 | > 100 |  |  |  |  | > 100 | > 100 | 
CC[C@H](C)[C@@H]1NC(=O)[C@H](CCCNC(=N)N)NC(=O)[C@H](C(C)C)NC(=O)[C@H](Cc2ccc(O)cc2)NC(=O)[C@H](C)NC(=O)[C@H](Cc2ccc(O)cc2)NC(=O)[C@H](C(C)C)NC(=O)[C@@H](NC(=O)[C@H](Cc2c[nH]c3ccccc23)NC(=O)[C@@H](N)CCCNC(=N)N)CSSC[C@@H](C(=O)N[C@@H](Cc2c[nH]c3ccccc23)C(=O)O)NC(=O)[C@H](CCCNC(=N)N)NC(=O)[C@H](CCCNC(=N)N)NC(=O)[C@H](Cc2ccc(O)cc2)NC(=O)[C@H](CCCNC(=N)N)NC(=O)[C@H](C(C)C)NC(=O)[C@H](CC(C)C)NC(=O)[C@H](C(C)C)NC(=O)CNC(=O)[C@H](CCCNC(=N)N)NC1=O [Ar-2] (H-RWCVYAYVRIRGVLVRYRRCW-OH; disulfide 3-20) |  | 4.9 ± 0.7 |  | > 100 | 37.7 ± 1.1 | > 100 |  |  |  |  |  |  |  |  | 29.2
